From PubChem BioAssay (NCI)
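Tested at 5 concentrations; 48 h exposure; 96-well plates; endpoints linearly interpolated, else capped at highest concentration. At the TGI there is no net growth.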

How the values were obtained:
Assay in all cases: NCI tumour cell line growth inhibition, 48 h
786-0 renal = tested on: 786-0 renal
A498 renal = tested on: A498 renal
A549 NSCLC = tested on: A549 NSCLC
ACHN renal = tested on: ACHN renal
BT-549 breast = tested on: BT-549 breast
CAKI-1 renal = tested on: CAKI-1 renal
CCRF-CEM leukemia = tested on: CCRF-CEM leukemia
COLO 205 colon = tested on: COLO 205 colon
DLD-1 colon = tested on: DLD-1 colon
DMS 114 small cell lung = tested on: DMS 114 small cell lung
DMS 273 small cell lung = tested on: DMS 273 small cell lung
DU-145 prostate = tested on: DU-145 prostate
EKVX NSCLC = tested on: EKVX NSCLC
HCC-2998 colon = tested on: HCC-2998 colon
HCT-116 colon = tested on: HCT-116 colon
HCT-15 colon = tested on: HCT-15 colon
HL-60(TB) leukemia = tested on: HL-60(TB) leukemia
HOP-18 NSCLC = tested on: HOP-18 NSCLC
HOP-62 NSCLC = tested on: HOP-62 NSCLC
HOP-92 NSCLC = tested on: HOP-92 NSCLC
HS 578T breast = tested on: HS 578T breast
HT29 colon = tested on: HT29 colon
IGROV1 ovarian = tested on: IGROV1 ovarian
K-562 leukemia = tested on: K-562 leukemia
KM12 colon = tested on: KM12 colon
KM20L2 colon = tested on: KM20L2 colon
LOX IMVI melanoma = tested on: LOX IMVI melanoma
LXFL 529 NSCLC = tested on: LXFL 529 NSCLC
M14 melanoma = tested on: M14 melanoma
M19-MEL melanoma = tested on: M19-MEL melanoma
MALME-3M melanoma = tested on: MALME-3M melanoma
MCF7 breast = tested on: MCF7 breast
MDA-MB-231 breast = tested on: MDA-MB-231 breast
MDA-MB-435 = tested on: MDA-MB-435
MDA-N = tested on: MDA-N
MOLT-4 leukemia = tested on: MOLT-4 leukemia
NCI-H226 lung = tested on: NCI-H226 lung
NCI-H23 lung = tested on: NCI-H23 lung
NCI-H460 lung = tested on: NCI-H460 lung
NCI-H522 lung = tested on: NCI-H522 lung
NCI/ADR-RES ovarian = tested on: NCI/ADR-RES ovarian
OVCAR-3 ovarian = tested on: OVCAR-3 ovarian
OVCAR-4 ovarian = tested on: OVCAR-4 ovarian
OVCAR-5 ovarian = tested on: OVCAR-5 ovarian
OVCAR-8 ovarian = tested on: OVCAR-8 ovarian
PC-3 prostate = tested on: PC-3 prostate
RPMI-8226 leukemia = tested on: RPMI-8226 leukemia
RXF 393 renal = tested on: RXF 393 renal
SF-268 CNS = tested on: SF-268 CNS
SF-295 CNS = tested on: SF-295 CNS
SF-539 CNS = tested on: SF-539 CNS
SK-MEL-2 melanoma = tested on: SK-MEL-2 melanoma
SK-MEL-28 melanoma = tested on: SK-MEL-28 melanoma
SK-MEL-5 melanoma = tested on: SK-MEL-5 melanoma
SK-OV-3 ovarian = tested on: SK-OV-3 ovarian
SN12C renal = tested on: SN12C renal
SNB-19 CNS = tested on: SNB-19 CNS
SNB-75 CNS = tested on: SNB-75 CNS
SNB-78 CNS = tested on: SNB-78 CNS
SR leukemia = tested on: SR leukemia
SW-620 colon = tested on: SW-620 colon
T-47D breast = tested on: T-47D breast
TK-10 renal = tested on: TK-10 renal
U251 CNS = tested on: U251 CNS
UACC-257 melanoma = tested on: UACC-257 melanoma
UACC-62 melanoma = tested on: UACC-62 melanoma
UO-31 renal = tested on: UO-31 renal
XF 498 CNS = tested on: XF 498 CNS
RXF-631 renal = tested on: RXF-631 renal

CC(C)(C)c1nc2c(o1)C(=Nc1ccc(F)cc1)c1ccccc1C2=O
TGI (786-0 renal): 52.5 µM | TGI (A498 renal): 50.9 µM | TGI (A549 NSCLC): 22.7 µM | TGI (ACHN renal): 32.1 µM | TGI (BT-549 breast): 12.9 µM | TGI (CAKI-1 renal): > 100 µM | TGI (CCRF-CEM leukemia): > 100 µM | TGI (COLO 205 colon): 30.7 µM | TGI (DLD-1 colon): > 100 µM | TGI (DMS 114 small cell lung): 7.81 µM | TGI (DMS 273 small cell lung): 10.5 µM | TGI (DU-145 prostate): 29.4 µM | TGI (EKVX NSCLC): > 83.5 µM | TGI (HCC-2998 colon): 20.5 µM | TGI (HCT-116 colon): 38.2 µM | TGI (HCT-15 colon): 33.8 µM | TGI (HL-60(TB) leukemia): > 44.9 µM | TGI (HOP-18 NSCLC): 28.8 µM | TGI (HOP-62 NSCLC): 32.4 µM | TGI (HOP-92 NSCLC): > 97.7 µM | TGI (HS 578T breast): > 45.7 µM | TGI (HT29 colon): 41.6 µM | TGI (IGROV1 ovarian): > 66.7 µM | TGI (K-562 leukemia): > 100 µM | TGI (KM12 colon): 52.5 µM | TGI (KM20L2 colon): 32.5 µM | TGI (LOX IMVI melanoma): 13 µM | TGI (LXFL 529 NSCLC): > 100 µM | TGI (M14 melanoma): 9.35 µM | TGI (M19-MEL melanoma): 3.08 µM | TGI (MALME-3M melanoma): 4.45 µM | TGI (MCF7 breast): 29.1 µM | TGI (MDA-MB-231 breast): > 100 µM | TGI (MDA-MB-435): 3.76 µM | TGI (MDA-N): 5.35 µM | TGI (MOLT-4 leukemia): > 100 µM | TGI (NCI-H226 lung): 34.3 µM | TGI (NCI-H23 lung): 8.98 µM | TGI (NCI-H460 lung): 21.5 µM | TGI (NCI-H522 lung): 20.5 µM | TGI (NCI/ADR-RES ovarian): > 56.7 µM | TGI (OVCAR-3 ovarian): 7.62 µM | TGI (OVCAR-4 ovarian): > 100 µM | TGI (OVCAR-5 ovarian): 34.3 µM | TGI (OVCAR-8 ovarian): > 61.2 µM | TGI (PC-3 prostate): > 100 µM | TGI (RPMI-8226 leukemia): > 100 µM | TGI (RXF 393 renal): 37.9 µM | TGI (SF-268 CNS): > 62.9 µM | TGI (SF-295 CNS): 19.6 µM | TGI (SF-539 CNS): 14.2 µM | TGI (SK-MEL-2 melanoma): 8.03 µM | TGI (SK-MEL-28 melanoma): 26 µM | TGI (SK-MEL-5 melanoma): 3.45 µM | TGI (SK-OV-3 ovarian): 45.9 µM | TGI (SN12C renal): 23.8 µM | TGI (SNB-19 CNS): 26.6 µM | TGI (SNB-75 CNS): 20 µM | TGI (SNB-78 CNS): > 100 µM | TGI (SR leukemia): > 100 µM | TGI (SW-620 colon): 30 µM | TGI (T-47D breast): > 100 µM | TGI (TK-10 renal): 68.3 µM | TGI (U251 CNS): 19.7 µM | TGI (UACC-257 melanoma): 8.41 µM | TGI (UACC-62 melanoma): 6.62 µM | TGI (UO-31 renal): 28.1 µM | TGI (XF 498 CNS): 3.94 µM

O=C1c2ccccc2-c2cccc3ccc(Cc4ccccc4)c1c23
TGI (786-0 renal): > 100 µM | TGI (A549 NSCLC): > 100 µM | TGI (ACHN renal): > 100 µM | TGI (CCRF-CEM leukemia): > 100 µM | TGI (COLO 205 colon): > 100 µM | TGI (DLD-1 colon): > 100 µM | TGI (DMS 114 small cell lung): > 100 µM | TGI (DMS 273 small cell lung): > 100 µM | TGI (EKVX NSCLC): > 100 µM | TGI (HCC-2998 colon): > 100 µM | TGI (HCT-116 colon): > 100 µM | TGI (HCT-15 colon): > 100 µM | TGI (HL-60(TB) leukemia): > 100 µM | TGI (HOP-62 NSCLC): > 100 µM | TGI (HOP-92 NSCLC): > 100 µM | TGI (HT29 colon): > 100 µM | TGI (IGROV1 ovarian): > 100 µM | TGI (K-562 leukemia): > 100 µM | TGI (KM12 colon): > 100 µM | TGI (KM20L2 colon): > 100 µM | TGI (LXFL 529 NSCLC): > 100 µM | TGI (M14 melanoma): > 100 µM | TGI (M19-MEL melanoma): > 100 µM | TGI (MALME-3M melanoma): > 100 µM | TGI (MOLT-4 leukemia): > 100 µM | TGI (NCI-H23 lung): > 100 µM | TGI (NCI-H460 lung): > 100 µM | TGI (NCI-H522 lung): > 100 µM | TGI (OVCAR-3 ovarian): > 100 µM | TGI (OVCAR-4 ovarian): > 100 µM | TGI (OVCAR-5 ovarian): > 100 µM | TGI (OVCAR-8 ovarian): > 100 µM | TGI (RPMI-8226 leukemia): > 100 µM | TGI (RXF 393 renal): > 100 µM | TGI (RXF-631 renal): > 100 µM | TGI (SF-268 CNS): > 100 µM | TGI (SF-295 CNS): > 100 µM | TGI (SF-539 CNS): > 100 µM | TGI (SK-MEL-2 melanoma): > 100 µM | TGI (SK-MEL-28 melanoma): > 100 µM | TGI (SK-MEL-5 melanoma): > 100 µM | TGI (SN12C renal): > 100 µM | TGI (SNB-19 CNS): > 100 µM | TGI (SNB-75 CNS): > 100 µM | TGI (SNB-78 CNS): > 100 µM | TGI (SW-620 colon): > 100 µM | TGI (TK-10 renal): > 100 µM | TGI (U251 CNS): > 100 µM | TGI (UACC-257 melanoma): > 100 µM | TGI (UACC-62 melanoma): > 100 µM | TGI (UO-31 renal): > 100 µM | TGI (XF 498 CNS): > 100 µM

CCC1(CC)C(=O)NC(=S)N=C1N
TGI (786-0 renal): > 100 µM | TGI (A498 renal): > 100 µM | TGI (A549 NSCLC): > 100 µM | TGI (ACHN renal): > 100 µM | TGI (CCRF-CEM leukemia): > 100 µM | TGI (COLO 205 colon): > 100 µM | TGI (DLD-1 colon): > 100 µM | TGI (DMS 114 small cell lung): > 100 µM | TGI (DMS 273 small cell lung): > 100 µM | TGI (EKVX NSCLC): > 100 µM | TGI (HCT-116 colon): > 100 µM | TGI (HCT-15 colon): > 100 µM | TGI (HL-60(TB) leukemia): > 100 µM | TGI (HOP-18 NSCLC): > 100 µM | TGI (HOP-62 NSCLC): > 100 µM | TGI (HOP-92 NSCLC): > 100 µM | TGI (HT29 colon): > 100 µM | TGI (IGROV1 ovarian): > 100 µM | TGI (K-562 leukemia): > 100 µM | TGI (KM20L2 colon): > 100 µM | TGI (LOX IMVI melanoma): > 100 µM | TGI (LXFL 529 NSCLC): > 100 µM | TGI (M14 melanoma): > 100 µM | TGI (M19-MEL melanoma): > 100 µM | TGI (MALME-3M melanoma): > 100 µM | TGI (MOLT-4 leukemia): > 100 µM | TGI (NCI-H226 lung): > 100 µM | TGI (NCI-H23 lung): > 100 µM | TGI (NCI-H460 lung): > 100 µM | TGI (NCI-H522 lung): > 100 µM | TGI (OVCAR-3 ovarian): > 100 µM | TGI (OVCAR-4 ovarian): > 100 µM | TGI (OVCAR-5 ovarian): > 100 µM | TGI (OVCAR-8 ovarian): > 100 µM | TGI (RPMI-8226 leukemia): > 100 µM | TGI (RXF 393 renal): > 100 µM | TGI (RXF-631 renal): > 100 µM | TGI (SF-268 CNS): > 100 µM | TGI (SF-295 CNS): > 100 µM | TGI (SF-539 CNS): > 100 µM | TGI (SK-MEL-2 melanoma): > 100 µM | TGI (SK-MEL-28 melanoma): > 100 µM | TGI (SK-OV-3 ovarian): > 100 µM | TGI (SN12C renal): > 100 µM | TGI (SNB-19 CNS): > 100 µM | TGI (SNB-75 CNS): > 100 µM | TGI (SW-620 colon): > 100 µM | TGI (TK-10 renal): > 100 µM | TGI (U251 CNS): > 100 µM | TGI (UACC-257 melanoma): > 100 µM | TGI (UACC-62 melanoma): > 100 µM | TGI (UO-31 renal): > 100 µM | TGI (XF 498 CNS): > 100 µM
